In brackets after ≈: the same amount, converted by molar mass.
Tested on: Mycobacterium tuberculosis H37Rv strains
Experiment: In vitro assay for antimicrobial susceptibility (microplate Alamar blue MIC)
Format: cell-based
Conditions: Mycobacterium tuberculosis, H37RV, 7H9, Alamar blue, inhibition ≧90%; read-out: MIC (μg/mL) against H37Rv

Row | Structure (SMILES) | MIC [µg/mL]
1 | CC(C)/N=c1\cc2n(-c3ccc(Cl)cc3)c3ccccc3nc-2cc1Nc1ncccc1C#N [TBI-1075, 5-(4-Chlorophenyl)-3-(1-methylethyl)imino-2-(3-cyano-2-pyridyl)amino-3,5-dihydrophenazine] | 0.016 (≈ 0.0344 µM)
2 | Fc1ccc(-n2c3c/c(=N\C4CCOCC4)c(Nc4cnccn4)cc-3nc3ccccc32)cc1 [TBI-1085, 5-(4-Fluorophenyl)-3-(4-tetrahydropyranyl)imino-2-(pyrazin-2-yl)amino-3,5-dihydrophenazine] | 0.038 (≈ 0.0815 µM)
3 | CC(C)/N=c1\cc2n(-c3ccc(F)c(F)c3)c3ccccc3nc-2cc1Nc1ncccc1C#N [TBI-1438, 5-(3,4-Difluorophenyl)-3-(1-methylethyl)imino-2-(3-cyano-2-pyridyl)amino-3,5-dihydrophenazine] | 0.053 (≈ 0.114 µM)
4 | CC(C)/N=c1\cc2n(-c3ccc(F)cc3)c3ccccc3nc-2cc1Nc1ccccn1 [TBI-1054, 5-(4-Fluorophenyl)-3-(1-methylethyl)imino-2-(2-pyridyl)amino-3,5-dihydrophenazine] | 0.446 (≈ 1.05 µM)
5 | CC(C)/N=c1\cc2n(-c3ccc(Cl)cc3)c3ccccc3nc-2cc1Nc1ccccn1 [TBI-1076, 5-(4-Chlorophenyl)-3-(1-methylethyl)imino-2-(2-pyridyl)amino-3,5-dihydrophenazine] | 0.014 (≈ 0.0318 µM)

Same assay, conditions: Mycobacterium tuberculosis, H37RV, in vitro, Mycobacterium tuberculosis H37Rv strains; read-out: MIC (μg/mL) against H37Rv

Row | Structure (SMILES) | MIC [µg/mL]
6 | CC(C)/N=c1\cc2n(-c3ccccc3Cl)c3ccccc3nc-2cc1Nc1cccnc1 [TBI-890, 5-(2-Chlorophenyl)-3-(1-methylethyl)imino-2-(3-pyridyl)amino-3,5-dihydrophenazine] | 0.476 (≈ 1.08 µM)
7 | COc1ncccc1Nc1cc2nc3cc(F)ccc3n(-c3ccc(OC(F)(F)F)cc3)c-2c/c1=N\C1CCC(OC)CC1 (stereo not shown) [TBI-861, 8-Fluoro-5-(4-trifluoromethoxyphenyl)-3-(4-methoxycyclohexyl)imino-2-(2-methoxy-3-pyridyl)amino-3,5-dihydrophenazine] | 0.058 (≈ 0.0955 µM)
8 | Cc1cncc(Nc2cc3nc4ccccc4n(-c4ccc(F)cc4)c-3c/c2=N\C2CC2)c1 [TBI-1030, 5-(4-Fluorophenyl)-3-cyclopropylimino-2-(5-methyl-3-pyridyl)amino-3,5-dihydrophenazine] | 0.012 (≈ 0.0276 µM)
9 | Cc1ncccc1Nc1cc2nc3ccccc3n(-c3ccccc3)c-2c/c1=N\C1CCC(O)CC1 (stereo not shown) [TBI-092] | 0.5 (≈ 1.05 µM)
10 | COc1ncccc1Nc1cc2nc3ccccc3n(-c3cccc(Cl)c3)c-2c/c1=N\C1CC1 [TBI-823, 5-(3-Chlorophenyl)-3-cyclopropylimino-2-(2-methoxy-3-pyridyl)amino-3,5-dihydrophenazine] | 0.03 (≈ 0.0641 µM)
11 | COc1ccc(Nc2cc3nc4ccccc4n(-c4ccccc4)c-3c/c2=N\C2CCCCC2)cn1 [TBI-513, 5-Phenyl-3-cyclohexylimino-2-(6-methoxy-3-pyridyl)amino-3,5-dihydrophenazine] | 0.244 (≈ 0.513 µM)
12 | Cc1ccc(Nc2cc3nc4ccccc4n(-c4ccccc4)c-3c/c2=N\C(C)C)cn1 [TBI-067, 5-Phenyl-3-(1-methylethyl)imino-2-(6-methyl-3-pyridyl)amino-3,5-dihydrophenazine] | 0.048 (≈ 0.114 µM)
13 | Cc1cncc(Nc2cc3nc4ccccc4n(-c4ccccc4)c-3c/c2=N\C2CC2)c1 [TBI-096, 5-Phenyl-3-cyclopropylimino-2-(5-methyl-3-pyridyl)amino-3,5-dihydrophenazine] | 0.069 (≈ 0.165 µM)
14 | Cc1ncccc1Nc1cc2nc3ccccc3n(-c3ccccc3)c-2c/c1=N\C(C)C [TBI-073, 5-Phenyl-3-(1-methylethyl)imino-2-(2-methyl-3-pyridyl)amino-3,5-dihydrophenazine] | 0.058 (≈ 0.138 µM)
15 | COc1ncccc1Nc1cc2nc3ccccc3n(-c3cccc(OC(F)(F)F)c3)c-2c/c1=N\C1CCOCC1 [TBI-1041, 5-(3-Trifluoromethoxyphenyl)-3-(4-tetrahydropyranyl)imino-2-(2-methoxy-3-pyridyl)amino-3,5-dihydrophenazine] | 0.115 (≈ 0.205 µM)
16 | CC(C)/N=c1\cc2n(-c3cccc(C(F)(F)F)c3)c3ccccc3nc-2cc1Nc1cccnc1 [TBI-730, 5-(3-Trifluoromethylphenyl)-3-(1-methylethyl)imino-2-(3-pyridyl)amino-3,5-dihydrophenazine] | 0.205 (≈ 0.433 µM)
17 | Cc1ncccc1Nc1cc2nc3ccccc3n(-c3ccc(C(F)(F)F)cc3)c-2c/c1=N\C1CC1 [TBI-729] | 0.186 (≈ 0.383 µM)
18 | Fc1ccc(-n2c3c/c(=N\C4CCOCC4)c(Nc4cccnc4)cc-3nc3ccccc32)cc1F [TBI-1432, 5-(3,4-Difluorophenyl)-3-(4-tetrahydropyranyl)imino-2-(3-pyridyl)amino-3,5-dihydrophenazine] | 0.088 (≈ 0.182 µM)
19 | c1ccc(-n2c3c/c(=N\C4CCN(C5CCCC5)CC4)c(Nc4cccnc4)cc-3nc3ccccc32)cc1 [TBI-060, 5-Phenyl-3-(N-cyclopentyl-4-piperidyl)imino-2-(3-pyridyl)amino-3,5-dihydrophenazine] | 1 (≈ 1.94 µM)
20 | Cc1ncccc1Nc1cc2nc3ccccc3n(-c3ccc(C(F)(F)F)cc3)c-2c/c1=N\C(C)C [TBI-705, 5-(4-Trifluoromethylphenyl)-3-(1-methylethyl)imino-2-(2-methyl-3-pyridyl)amino-3,5-dihydrophenazine] | 0.014 (≈ 0.0287 µM)
21 | CO[C@H]1CC[C@H](/N=c2\cc3n(-c4ccc(Cl)cc4)c4ccccc4nc-3cc2Nc2cncc(Br)c2)CC1 [TBI-881, 5-(4-Chlorophenyl)-3-(1′,4′-trans-4-methoxycyclohexyl)imino-2-(5-bromo-3-pyridyl)amino-3,5-dihydrophenazine] | 0.052 (≈ 0.0883 µM)
22 | Cc1ncccc1Nc1cc2nc3ccccc3n(-c3ccc(F)cc3)c-2c/c1=N\C(C)C [TBI-693, 5-(4-Fluorophenyl)-3-(1-methylethyl)imino-2-(2-methyl-3-pyridyl)amino-3,5-dihydrophenazine] | 0.03 (≈ 0.0686 µM)
23 | COc1ncccc1Nc1cc2nc3ccccc3n(-c3ccc(NC(C)=O)cc3)c-2c/c1=N\C(C)C [TBI-1220, 5-(4-Acetamidophenyl)-3-(1-methylethyl)imino-2-(2-methoxy-3-pyridyl)amino-3,5-dihydrophenazine] | > 0.5
24 | COc1ncccc1Nc1cc2nc3ccccc3n(-c3ccc(NC(C)=O)cc3)c-2c/c1=N\C1CCC(OC)CC1 (stereo not shown) [TBI-1222, 5-(4-Acetamidophenyl)-3-(4-methoxycyclohexyl)imino-2-(2-methoxy-3-pyridyl)amino-3,5-dihydrophenazine] | 0.925 (≈ 1.64 µM)
25 | Fc1ccc(-n2c3c/c(=N\C4CCCCC4)c(Nc4cccnc4)cc-3nc3ccccc32)cc1F [TBI-527, 5-(3,4-Difluorophenyl)-3-cyclohexylimino-2-(3-pyridyl)amino-3,5-dihydrophenazine] | 0.039 (≈ 0.081 µM)
26 | COC1CCC(/N=c2\cc3n(-c4ccc(Br)cc4)c4ccccc4nc-3cc2Nc2ccc(C)nc2)CC1 (stereo not shown) [TBI-503, 5-(4-Bromophenyl)-3-(4-methoxycyclohexyl)imino-2-(6-methyl-3-pyridyl)amino-3,5-dihydrophenazine] | 0.097 (≈ 0.171 µM)
27 | COc1ncccc1Nc1cc2nc3ccccc3n(-c3ccc(F)cc3)c-2c/c1=N\C1CCN(C)CC1 [TBI-1005, 5-(4-Fluorophenyl)-3-(N-methyl-4-piperidyl)imino-2-(2-methoxy-3-pyridyl)amino-3,5-dihydrophenazine] | 0.213 (≈ 0.419 µM)
28 | Cc1ccc(Nc2cc3nc4ccccc4n(-c4ccc(C(F)(F)F)cc4)c-3c/c2=N\C2CCC2)cn1 [TBI-738, 5-(4-Trifluoromethylphenyl)-3-cyclobutylimino-2-(6-methyl-3-pyridyl)amino-3,5-dihydrophenazine] | 0.029 (≈ 0.0581 µM)

From US8716292B2, “Riminophenazines with 2-(heteroaryl)amino substituents and their anti-microbial activity” (priority 2010, dated 2014)
